Measurements published in patent US6576671B1, “Aminotetralin derivatives for the therapy of cardiovascular diseases” (Chiese Farmaceutici S.p.A., priority 1999, dated 2003).
pIC50: −log10 of the molar value.

Assays:
[1] = Pharmacological and clinic pharmacological studies of diuresis; conditions: in vivo
[2] = molecular target: peripheral DA2 dopaminergic receptors (Oryctolagus cuniculus, UniProt G1T1Q0); assay: Peripheral DA2 dopaminergic activity in electrically stimulated rabbit rectococcygeus muscle
Excerpt: The activity of CHF 1024 and CHF 1035 on peripheral DA2 dopaminergic receptors has been tested in the electrically stimulated rabbit rectococcygeus muscle.

[3] = test system: patients suffering from NYHA class II-III congestive heart failure; assay: Add-on therapy study, 28 days, clinical condition and exercise capacity; assay type: in vivo, human
Method: The effects of CHF 1030 as added therapy have been evaluated in patients suffering from NYHA class II-III congestive heart failure due to mild hypertension, or coronary disease, or chronic cardiomyopathy who were on diuretics or diuretics and an angiotensin-converting enzyme inhibitor.
Recruited patients were randomly assigned to added double-blind treatment with placebo or with three different doses of the study drug (5 mg, 10 mg, 15 mg).
The study therapy was started by patients on day 1 and proceeded until day 28 of the study.
The following parameters have been considered to determine the clinical condition of patients:
The functional response to the treatments has been evaluated by exertional tests, the 6-minute walking test and the 130-meter walking test.
For the evaluation of clinical condition, more than 60 symptoms or signs were evaluated.
For statistical purposes scores from signs and symptoms (as applicable) were summed to form clinical compound scorings (CCSs) of pathophysiological importance in congestive heart failure.

Sequence of peripheral DA2 dopaminergic receptors (G1T1Q0 1-443): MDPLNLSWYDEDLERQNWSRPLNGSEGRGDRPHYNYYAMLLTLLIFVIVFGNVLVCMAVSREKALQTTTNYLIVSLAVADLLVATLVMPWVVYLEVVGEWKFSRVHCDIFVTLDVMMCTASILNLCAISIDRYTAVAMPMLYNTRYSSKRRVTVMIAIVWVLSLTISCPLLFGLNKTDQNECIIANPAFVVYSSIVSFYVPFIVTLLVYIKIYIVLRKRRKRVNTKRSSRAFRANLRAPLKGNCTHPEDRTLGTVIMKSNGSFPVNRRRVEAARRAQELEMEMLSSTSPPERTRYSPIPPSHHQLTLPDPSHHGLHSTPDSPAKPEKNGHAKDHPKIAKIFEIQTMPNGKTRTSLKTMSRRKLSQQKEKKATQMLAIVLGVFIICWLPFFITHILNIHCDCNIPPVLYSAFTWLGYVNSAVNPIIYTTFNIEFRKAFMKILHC

In the case of `CNC1CCc2c(ccc(OC(=O)C(C)C)c2OC(=O)C(C)C)C1` (stereo not shown) [CHF 1035, 5,6-Diisobutyroyloxy-2-methylaminotetralin], the diuresis [1] was “increases”, the natriuresis and kaliuresis [1] was “without affecting” and the “effect in presence of selective DA2-antagonist domperidone” value [2] was “competitively antagonized”. The “more potent than dopamine” value [2] was “approximately 3 times”, the pIC50 ([2]; read-out: IC50, 50% inhibition of the electrically induced contraction) was 7.53 and the “functional and clinical condition of patients, compared to placebo” value ([3]; 5, 10, 15 mg add-on to diuretics or diuretics and ACE inhibitor, day 1 to 28) was “improved”. For the same molecule, the “duration of pharmacodynamic effects versus serum levels of the drug” value ([3]; patients with congestive heart failure) was “last longer than detectable serum levels”.
